Here are results for 17 compounds from patent publication US20170114070A1, “INHIBITORS OF THE WNT SIGNALLING PATHWAYS” (Bayer Pharma Aktiengesellschaft, priority 2014, published 2017).

The test system of test [1] is constitutive active Wnt pathway (HCT116 TOPFlash). The experiment in a line: Cellular reporter assay, HCT116 Super TopFlash (constitutive active Wnt pathway). It counts as cell-based. The note with it: Homo sapiens, HCT-116; HCT116 stably transfected with Super TopFlash vector; 36 hours incubation; luciferase expression. As for the experimental part: In order to discover and characterize small molecules which inhibit the constitutive active colorectal cancer cell (CRC) Wnt pathway, a cellular reporter assay was employed. The corresponding assay cell was generated by transfection of the colorectal cancer cell line HCT116 (ATCC, #CCL-247) with the Super TopFlash vector (Morin, Science 275, 1997, 1787-1790; Molenaar et al., Cell 86 (3), 1996, 391-399). The HCT116 cell line is cultivated at 37° C. and 5% CO2 in DMEM/F-12 (Life Technologies, #11320-074), supplemented with 2 mM glutamine, 20 mM HEPES, 1.4 mM pyruvate, 0.15% Na-bicarbonate and 10% foetal bovine serum (GIBCO, #10270), this cancer cell line is pathophysiological relevant since it carries a deletion of position S45 in the β-catenin gene, leading to constitutive active Wnt signaling. Stable transfectants were generated by cotransfection with pcDNA3 and selection of stable transfected cells with 1 mg/ml G418.
(§1) In a parallel approach, HCT116 cells were cotransfected with the FOP control vector and pcDNA3. The FOP vector is identical to the TOP construct, but it contains instead of functional TCF elements a randomized, non-functional sequence. For this transfection a stable transfected cell line was generated as well.
(§2) In preparation of the assay, the two cell lines were plated 24 hours before at 10000 cells per well of a 384 micro titre plate (MTP) in 30 μL growth medium. Selective inhibitory activity for small molecules on the mutated Wnt pathway was determined after parallel incubation of both (TOP and FOP) HCT116 reporter cell lines with a compound dilution series from 50 μM to 15 nM in steps of 3.16-fold dilutions in CAFTY buffer (130 mM NaCl, 5 mM KCl, 20 mM HEPES, 1 mM MgCl2, 5 mM NaHCO3, pH 7.4) containing 2 mM Ca^2+ and 0.01% BSA. The compounds were thereby serially prediluted in 100% DMSO and thereafter in addition 50 fold into the CAFTY compound dilution buffer (described above). From this dilution 10 μL were added to the cells in 30 μL growth medium and incubated for 36 hours at 37° C. and 5% CO2. Thereafter luciferase assay buffer (1:1 mixture of luciferase substrate buffer (20 mM Tricine, 2.67 mM MgSO4, 0.1 mM EDTA, 4 mM DTT, 270 μM Coenzyme A, 470 μM Luciferin, 530 μM ATP, ph adjusted to pH 7.8 with a sufficient volume of 5M NaOH) and Triton buffer (30 mL Triton X-100, 115 mL glycerol, 308 mg Dithiothreitol, 4.45 g Na2HPO4.2H2O, 3.03 g TRIS HCl, ad 1 l H20, pH 7.8) was added as equal volume to the compound solution on the cells to determine luciferase expression as a measure of Wnt signaling activity in a luminometer.
Background: In a reporter assay the amount or activity of a reporter protein is the signal.

The subject of test [2] is HCT116 FOPFlash (FOP control vector, non-functional TCF elements). As to the kind of experiment: Cellular control reporter assay, HCT116 FOP control vector. It counts as cell-based. The note with it: Homo sapiens, HCT-116; HCT116 stably transfected with FOP control vector; 36 hours incubation; luciferase expression; dilution series from 50 μM. As for the experimental part: as §1, §2

With `Cc1ccncc1-c1cnc(NC(=O)c2ccc(OC(F)(F)F)c(NC(=O)CN3CCOCC3)c2)cn1` [Example 45, N-[5-(4-methylpyridin-3-yl)pyrazin-2-yl]-3-[(morpholin-4-ylacetyl)amino]-4-(trifluoromethoxy)benzamide], the IC50 in test [1] was 16.7 µM; in test [2], not below 50 µM.

For the compound `O=C(CN1CCOCC1)Nc1cc(C(=O)Nc2cnc(-c3ccccn3)cn2)ccc1OC(F)(F)F` [Example 61, 3-[(morpholin-4-ylacetyl)amino]-N-[5-(pyridin-2-yl)pyrazin-2-yl]-4-(trifluoromethoxy)benzamide], the IC50 in test [1] and in test [2] was not below 50 µM throughout.

For the compound `Cc1ccncc1-c1cnc(NC(=O)c2ccc(OC(F)(F)F)c(NC(=O)CN3CCN(C)CC3)c2)cn1` [Example 30, 3-{[(4-methylpiperazin-1-yl)acetyl]amino}-N-[5-(4-methylpyridin-3-yl)pyrazin-2-yl]-4-(trifluoromethoxy)benzamide], the values for the IC50 in test [1] and in test [2] were 0.082 µM and not below 50 µM, respectively.

In the case of `CN1CCN(CC(=O)Nc2cc(C(=O)Nc3cnc(-c4cccnc4)cn3)ccc2OC(F)(F)F)CC1` [Example 22, 3-{[(4-methylpiperazin-1-yl)acetyl]amino}-N-[5-(pyridin-3-yl)pyrazin-2-yl]-4-(trifluoromethoxy)benzamide], the IC50 in test [1] came to 0.017 µM; in test [2] it was 38 µM.

Take `CN1CCN(CC(=O)Nc2cc(C(=O)Nc3cnc(-c4ccncc4)cn3)ccc2OC(F)(F)F)CC1` [Example 28, 3-{[(4-methylpiperazin-1-yl)acetyl]amino}-N-[5-(pyridin-4-yl)pyrazin-2-yl]-4-(trifluoromethoxy)benzamide]: the IC50 in test [1] is 0.064 µM; in test [2] it was not below 50 µM.

With `Nc1ncc(-c2cnc(NC(=O)c3ccc(OC(F)(F)F)c(NC(=O)CN4CCOCC4)c3)cn2)cn1` [Example 53, N-[5-(2-aminopyrimidin-5-yl)pyrazin-2-yl]-3-[(morpholin-4-ylacetyl)amino]-4-(trifluoromethoxy)benzamide], the results for the IC50 in test [1] and in test [2] were 0.83 µM and 9.5 µM, respectively.

Regarding `O=C(CN1CCOCC1)Nc1cc(C(=O)Nc2cnc(-c3ccccn3)cn2)ccc1OC1CC1` [Example 50, 4-(cyclopropyloxy)-3-[(morpholin-4-ylacetyl)amino]-N-[5-(pyridin-2-yl)pyrazin-2-yl]benzamide], the IC50 is 16.9 µM in test [1] and not below 50 µM in test [2].

As to `CN1CCN(CC(=O)Nc2cc(C(=O)Nc3ncc(-c4ccccc4)nn3)ccc2OC(F)(F)F)CC1` [Example 18, 3-{[(4-methylpiperazin-1-yl)acetyl]amino}-N-(6-phenyl-1,2,4-triazin-3-yl)-4-(trifluoromethoxy)benzamide], the IC50 in test [1] is 0.016 µM; in test [2] it was 20 µM.

With `CN1CCN(CC(=O)Nc2cc(C(=O)Nc3cnc(-c4ccccc4F)cn3)ccc2OC(F)(F)F)CC1` [Example 41, N-[5-(2-fluorophenyl)pyrazin-2-yl]-3-{[(4-methylpiperazin-1-yl)acetyl]amino}-4-(trifluoromethoxy)benzamide], the IC50 in test [1] was 0.225 µM; in test [2], not below 50 µM.

For the compound `CN1CCN(CC(=O)Nc2cc(C(=O)Nc3cnc(-c4cncnc4)cn3)ccc2OC(F)(F)F)CC1` [Example 49], the IC50 is 0.26 µM in test [1] and not below 50 µM in test [2].

Consider `O=C(CN1CCOCC1)Nc1cc(C(=O)Nc2cnc(-c3cnccn3)cn2)ccc1OC1CC1` [Example 52, N-(2,2′-bipyrazin-5-yl)-4-(cyclopropyloxy)-3-[(morpholin-4-ylacetyl)amino]benzamide], for which the IC50 in test [1] came to 0.372 µM; in test [2], 44.7 µM.

As to `O=C(CN1CCOCC1)Nc1cc(C(=O)Nc2cnc(-c3ccccc3F)cn2)ccc1OC(F)(F)F` [Example 25, N-[5-(2-fluorophenyl)pyrazin-2-yl]-3-[(morpholin-4-ylacetyl)amino]-4-(trifluoromethoxy)benzamide], the concentration for half-maximal inhibition (IC50) in test [1] stood at 4.62 µM; in test [2], 23.1 µM.

As for `O=C(CN1CCOCC1)Nc1cc(NC(=O)c2cnc(-c3ccccc3)cn2)ccc1OC(F)(F)F` [Example 6, N-{3-[(morpholin-4-ylacetyl)amino]-4-(trifluoromethoxy)phenyl}-5-phenylpyrazine-2-carboxamide], the IC50 in test [1] was 0.834 µM; in test [2], not below 50 µM.

As to `O=C(CN1CCOCC1)Nc1cc(C(=O)Nc2cnc(-c3cncnc3)cn2)ccc1OC(F)(F)F` [Example 26, 3-[(morpholin-4-ylacetyl)amino]-N-[5-(pyrimidin-5-yl)pyrazin-2-yl]-4-(trifluoromethoxy)benzamide], the half-inhibitory concentration (IC50) in test [1] was 0.058 µM; in test [2], not below 50 µM.

Regarding `O=C(CN1CCOCC1)Nc1cc(C(=O)Nc2cnc(-c3ccccc3Cl)cn2)ccc1OC(F)(F)F` [Example 33, N-[5-(2-chlorophenyl)pyrazin-2-yl]-3-[(morpholin-4-ylacetyl)amino]-4-(trifluoromethoxy)benzamide], the half-inhibitory concentration (IC50) stood at 0.115 µM in test [1] and 31.5 µM in test [2].

In the case of `O=C(CN1CCOCC1)Nc1cc(C(=O)Nc2cnc(-c3ccncc3)cn2)ccc1OC(F)(F)F` [Example 51, 3-[(morpholin-4-ylacetyl)amino]-N-[5-(pyridin-4-yl)pyrazin-2-yl]-4-(trifluoromethoxy)benzamide], the IC50 in test [1] is 0.483 µM; in test [2], not below 50 µM.

Regarding `CN1CCN(CC(=O)Nc2cc(C(=O)Nc3ccc(-c4cnc(N)nc4)nn3)ccc2OC(F)(F)F)CC1` [Example 3, N-[6-(2-aminopyrimidin-5-yl)pyridazin-3-yl]-3-{[(4-methylpiperazin-1-yl)acetyl]amino}-4-(trifluoromethoxy)benzamide], the IC50 in test [1] is 0.0992 µM; in test [2], not below 50 µM.

By IC50 is commonly meant the concentration at which inhibition is half-maximal. A higher IC50 goes with weaker potency.
